What all share (assay type): functional
The species named for assay [1] is Rattus norvegicus. Put plainly: % stimulation of cyclic AMP production in homogenates of rat corpus striatum pre-incubated with 30 uM of NCA and 50 uM of DA.
The species named for assay [2] is Rattus norvegicus. As to the kind of experiment: % inhibition of cyclic AMP production in homogenates of rat corpus striatum pre-incubated with 30 uM of NCA and 50 uM of DA.
The species entered for assay [3] is Rattus norvegicus. As to the kind of experiment: % inhibition of cyclic AMP production in homogenates of rat corpus striatum pre-incubated with 0 uM of NCA and 50 uM of DA.
The species named for assay [4] is Rattus norvegicus. Put plainly: % stimulation of cyclic AMP production in homogenates of rat corpus striatum pre-incubated with 75 uM of NCA and 0 uM of DA.
Assay [5] is filed under the species Rattus norvegicus. As to the kind of experiment: % stimulation of cyclic AMP production in homogenates of rat corpus striatum pre-incubated with 0 uM of NCA and 50 uM of DA.
Assay [6] is filed under the species Rattus norvegicus. Put plainly: % stimulation of cyclic AMP production in homogenates of rat corpus striatum pre-incubated with 10 uM of NCA and 0 uM of DA.
The species entered for assay [7] is Rattus norvegicus. As to the kind of experiment: % inhibition of cyclic AMP production in homogenates of rat corpus striatum pre-incubated with 75 uM of NCA and 0 uM of DA.
For assay [8], the species on record is Rattus norvegicus. Put plainly: % inhibition of cyclic AMP production in homogenates of rat corpus striatum pre-incubated with 0 uM of NCA and 0 uM of DA.
The species entered for assay [9] is Rattus norvegicus. As to the kind of experiment: % stimulation of cyclic AMP production in homogenates of rat corpus striatum preincubated with 30 uM of NCA and 0 uM of DA.
The species entered for assay [10] is Rattus norvegicus. Put plainly: % inhibition of cyclic AMP production in homogenates of rat corpus striatum pre-incubated with 10 uM of NCA and 0 uM of DA.
The species entered for assay [11] is Rattus norvegicus. As to the kind of experiment: % stimulation of cyclic AMP production in homogenates of rat corpus striatum pre-incubated with 0 uM of NCA and 0 uM of DA.
For assay [12], the species on record is Rattus norvegicus. Put plainly: % inhibition of cyclic AMP production in homogenates of rat corpus striatum pre-incubated with 30 uM of NCA and 0 uM of DA.

Consider one molecule from ChEMBL document CHEMBL1121605, “Aporphines. 30. (-)-N(2-chloroethyl)-10,11-dihydroxynor-aporphine (chloroethylnorapomorphine), a novel irreversible dopamine receptor antagonist” (J Med Chem, 1980).

As a reminder, the inhibition is the relative decrease from the control value, in per cent. In the case of `Oc1ccc2c(c1O)-c1cccc3c1[C@@H](C2)N(CCCl)CC3`, the Stimulation in the assay listed under Rattus norvegicus [1] is 103%; in the assay filed under Rattus norvegicus [4] it was 8.1%; in the assay filed under Rattus norvegicus [5], 98%; in the assay listed under Rattus norvegicus [6], 83.9%; in the assay filed under Rattus norvegicus [9], 43.9%; in the assay listed under Rattus norvegicus [11], 100%. Besides, the inhibition turned out to be 3% in the assay filed under Rattus norvegicus [2]; 2% in the assay filed under Rattus norvegicus [3]; 92% in the assay filed under Rattus norvegicus [7]; 0% in the assay filed under Rattus norvegicus [8]; 16% in the assay filed under Rattus norvegicus [10]; 56% in the assay filed under Rattus norvegicus [12].
